According to ChEMBL document CHEMBL4020788, “Synthesis, SAR and molecular docking studies of benzo[d]thiazole-hydrazones as potential antibacterial and antifungal agents” (2017):
≈ marks a conversion by molar mass, not a printed value. Calls of active or inactive are those of the source. No cut-off for these calls is given here.

How the values were obtained:
Assay type in all cases: functional
[1] = tested on: Klebsiella pneumoniae; assay: Antibacterial activity against Klebsiella pneumoniae at 25 ug/ml after 24 hrs by agar well diffusion method
[2] = tested on: Klebsiella pneumoniae; assay: Antibacterial activity against Klebsiella pneumoniae at 75 ug/ml after 24 hrs by agar well diffusion method
[3] = tested on: Fusarium oxysporum; assay: Antifungal activity against Fusarium oxysporum at 75 ug/ml after 48 hrs by agar well diffusion method; conditions: read-out: DIZ
[4] = tested on: Escherichia coli; assay: Antibacterial activity against Escherichia coli at 75 ug/ml after 24 hrs by agar well diffusion method; conditions: read-out: DIZ
[5] = tested on: Staphylococcus aureus; assay: Antibacterial activity against Staphylococcus aureus incubated for overnight by microdilution method
[6] = tested on: Escherichia coli; assay: Antibacterial activity against Escherichia coli at 25 ug/ml after 24 hrs by agar well diffusion method; conditions: read-out: DIZ
[7] = tested on: Aspergillus niger; assay: Antifungal activity against Aspergillus niger after 48 to 72 hrs by microdilution method
[8] = tested on: Fusarium oxysporum; assay: Antifungal activity against Fusarium oxysporum at 50 ug/ml after 48 hrs by agar well diffusion method; conditions: read-out: DIZ
[9] = tested on: Staphylococcus aureus; assay: Antibacterial activity against Staphylococcus aureus at 25 ug/ml after 24 hrs by agar well diffusion method; conditions: read-out: DIZ
[10] = tested on: Staphylococcus aureus; assay: Antibacterial activity against Staphylococcus aureus at 100 ug/ml after 24 hrs by agar well diffusion method; conditions: read-out: DIZ
[11] = tested on: Klebsiella pneumoniae; assay: Antibacterial activity against Klebsiella pneumoniae at 50 ug/ml after 24 hrs by agar well diffusion method
[12] = tested on: Staphylococcus aureus; assay: Antibacterial activity against Staphylococcus aureus at 50 ug/ml after 24 hrs by agar well diffusion method; conditions: read-out: DIZ
[13] = tested on: Fusarium oxysporum; assay: Antifungal activity against Fusarium oxysporum after 48 to 72 hrs by microdilution method
[14] = tested on: Aspergillus niger; assay: Antifungal activity against Aspergillus niger at 100 ug/ml after 48 hrs by agar well diffusion method; conditions: read-out: DIZ
[15] = tested on: Fusarium verticillioides; assay: Antifungal activity against Fusarium moniliforme at 25 ug/ml after 48 hrs by agar well diffusion method; conditions: read-out: DIZ
[16] = tested on: Fusarium oxysporum; assay: Antifungal activity against Fusarium oxysporum at 100 ug/ml after 48 hrs by agar well diffusion method; conditions: read-out: DIZ
[17] = tested on: Staphylococcus aureus; assay: Antibacterial activity against methicillin resistant Staphylococcus aureus MRSA090 at 75 ug/ml after 24 hrs by agar well diffusion method; conditions: MRSA090, 24 h, read-out: DIZ
[18] = tested on: Bacillus subtilis; assay: Antibacterial activity against Bacillus subtilis at 75 ug/ml after 24 hrs by agar well diffusion method; conditions: read-out: DIZ
[19] = tested on: Escherichia coli; assay: Antibacterial activity against Escherichia coli at 100 ug/ml after 24 hrs by agar well diffusion method; conditions: read-out: DIZ
[20] = tested on: Fusarium oxysporum; assay: Antifungal activity against Fusarium oxysporum at 25 ug/ml after 48 hrs by agar well diffusion method; conditions: read-out: DIZ
[21] = tested on: Staphylococcus aureus; assay: Antibacterial activity against methicillin resistant Staphylococcus aureus MRSA090 at 25 ug/ml after 24 hrs by agar well diffusion method; conditions: MRSA090, 24 h, read-out: DIZ
[22] = tested on: Klebsiella pneumoniae; assay: Antibacterial activity against Klebsiella pneumoniae at 100 ug/ml after 24 hrs by agar well diffusion method
[23] = tested on: Staphylococcus aureus; assay: Antibacterial activity against methicillin resistant Staphylococcus aureus MRSA090 at 50 ug/ml after 24 hrs by agar well diffusion method; conditions: MRSA090, 24 h, read-out: DIZ
[24] = tested on: Escherichia coli; assay: Antibacterial activity against Escherichia coli incubated for overnight by microdilution method
[25] = tested on: Staphylococcus aureus; assay: Antibacterial activity against methicillin resistant Staphylococcus aureus MRSA090 at 100 ug/ml after 24 hrs by agar well diffusion method; conditions: MRSA090, 24 h, read-out: DIZ
[26] = tested on: Bacillus subtilis; assay: Antibacterial activity against Bacillus subtilis incubated for overnight by microdilution method
[27] = tested on: Klebsiella pneumoniae; assay: Antibacterial activity against Klebsiella pneumoniae incubated for overnight by microdilution method
[28] = tested on: Fusarium verticillioides; assay: Antifungal activity against Fusarium moniliforme at 75 ug/ml after 48 hrs by agar well diffusion method; conditions: read-out: DIZ
[29] = tested on: Aspergillus niger; assay: Antifungal activity against Aspergillus niger at 25 ug/ml after 48 hrs by agar well diffusion method; conditions: read-out: DIZ
[30] = tested on: Aspergillus niger; assay: Antifungal activity against Aspergillus niger at 75 ug/ml after 48 hrs by agar well diffusion method; conditions: read-out: DIZ
[31] = tested on: Fusarium verticillioides; assay: Antifungal activity against Fusarium moniliforme at 100 ug/ml after 48 hrs by agar well diffusion method; conditions: read-out: DIZ
[32] = tested on: Fusarium verticillioides; assay: Antifungal activity against Fusarium moniliforme at 50 ug/ml after 48 hrs by agar well diffusion method; conditions: read-out: DIZ
[33] = tested on: Aspergillus niger; assay: Antifungal activity against Aspergillus niger at 50 ug/ml after 48 hrs by agar well diffusion method; conditions: read-out: DIZ
[34] = tested on: Staphylococcus aureus; assay: Antibacterial activity against Staphylococcus aureus at 75 ug/ml after 24 hrs by agar well diffusion method; conditions: read-out: DIZ
[35] = tested on: Bacillus subtilis; assay: Antibacterial activity against Bacillus subtilis at 25 ug/ml after 24 hrs by agar well diffusion method; conditions: read-out: DIZ
[36] = tested on: Fusarium verticillioides; assay: Antifungal activity against Fusarium moniliforme after 48 to 72 hrs by microdilution method
[37] = tested on: Bacillus subtilis; assay: Antibacterial activity against Bacillus subtilis at 50 ug/ml after 24 hrs by agar well diffusion method; conditions: read-out: DIZ
[38] = tested on: Escherichia coli; assay: Antibacterial activity against Escherichia coli at 50 ug/ml after 24 hrs by agar well diffusion method; conditions: read-out: DIZ
[39] = tested on: Bacillus subtilis; assay: Antibacterial activity against Bacillus subtilis at 100 ug/ml after 24 hrs by agar well diffusion method; conditions: read-out: DIZ

With Cc1cccc2nc(N/N=C/c3ccc(F)cc3F)sc12 the “diameter of the inhibition zone (DIZ)” value [1] was “inactive”, the “diameter of the inhibition zone (DIZ)” value [2] was “inactive” and the zone of inhibition at 75 µg/mL [3] was 16 mm. It also gave a zone of inhibition at 75 µg/mL [4] of 11 mm, an MIC [5] of 23 µg/mL (≈ 75.8 µM) and a zone of inhibition at 25 µg/mL [6] of 4 mm. The MIC [7] was 26 µg/mL (≈ 85.7 µM), the zone of inhibition at 50 µg/mL [8] was 13 mm and the zone of inhibition at 25 µg/mL [9] was 5 mm. The zone of inhibition at 100 µg/mL [10] was 15 mm, the “diameter of the inhibition zone (DIZ)” value [11] was “inactive” and the zone of inhibition at 50 µg/mL [12] was 8 mm. For the same molecule, the MIC [13] was 18 µg/mL (≈ 59.3 µM), the zone of inhibition at 100 µg/mL [14] was 30 mm and the zone of inhibition at 25 µg/mL [15] was 18 mm. The zone of inhibition at 100 µg/mL [16] was 20 mm, the zone of inhibition at 75 µg/mL [17] was 16 mm and the zone of inhibition at 75 µg/mL [18] was 13 mm. The zone of inhibition at 100 µg/mL [19] was 14 mm, the zone of inhibition at 25 µg/mL [20] was 10 mm and the zone of inhibition at 25 µg/mL [21] was 10 mm. The “diameter of the inhibition zone (DIZ)” value [22] was “inactive”, the zone of inhibition at 50 µg/mL [23] was 13 mm and the MIC [24] was 24 µg/mL (≈ 79.1 µM). The zone of inhibition at 100 µg/mL [25] was 19 mm, the MIC [26] was 25 µg/mL (≈ 82.4 µM) and the MIC [27] was 22 µg/mL (≈ 72.5 µM). It also gave a zone of inhibition at 75 µg/mL [28] of 28 mm, a zone of inhibition at 25 µg/mL [29] of 17 mm and a zone of inhibition at 75 µg/mL [30] of 29 mm. For the same molecule, the zone of inhibition at 100 µg/mL [31] was 33 mm, the zone of inhibition at 50 µg/mL [32] was 23 mm and the zone of inhibition at 50 µg/mL [33] was 24 mm. It also gave a zone of inhibition at 75 µg/mL [34] of 11 mm, a zone of inhibition at 25 µg/mL [35] of 7 mm and an MIC [36] of 20 µg/mL (≈ 65.9 µM). The zone of inhibition at 50 µg/mL [37] was 10 mm, the zone of inhibition at 50 µg/mL [38] was 7 mm and the zone of inhibition at 100 µg/mL [39] was 15 mm.
